According to US9499550B2 (BRISTOL-MYERS SQUIBB COMPANY, priority 2012, dated 2016):
Like-named read-outs stand apart in the source and are kept apart here.

What was measured:
[1] = system: HCV genotype 1a (H77 strain) replicon in HUH-7 cells; test: HCV replicon luciferase reporter assay, genotype 1a; type: cell-based; conditions: Hepatitis C virus, Huh-7, 72 h, 3 days incubation
Procedure, shortened: (§1)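 Replicon inhibition for both genotypes was measured as Renilla luciferase signal (EnduRen, 7.5 μM final, 2 h) after 3-day, 37° C exposure of replicon-bearing HUH-7 cells in 4% FCS DMEM, 0.5% DMSO. The 1b construct carries S1179I; the 1a H77 construct carries P1496L and S2204I. Twenty-point, 3-fold dilutions were fitted four-parametrically for EC50, and CC50 was taken from multiplexed Cell Titer-Blue.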

[2] = system: HCV genotype 1b (Con1) replicon in HUH-7 cells; test: HCV replicon luciferase reporter assay, genotype 1b; type: cell-based; conditions: Hepatitis C virus, Huh-7, 72 h, 3 days incubation
Procedure, shortened: as §1

[3] = HCV genotype 1a replicon luciferase assay, range class, read-out: LE_1a (EC50, range)
[4] = HCV genotype 1b replicon luciferase assay, range class, read-out: LE_1b (EC50, range)
[5] = GETYPE1A, HCV genotype 1a replicon luciferase assay, range class, read-out: LE_1a (EC50, range)
[6] = GETYPE1B, HCV genotype 1b replicon luciferase assay, range class, read-out: LE_1b (EC50, range)
[7] = GETYPE1A, HCV genotype 1a replicon luciferase, read-out: LE_1a (EC50, range)
[8] = GETYPE1B, HCV genotype 1b replicon luciferase, read-out: LE_1b (EC50, range)
[9] = GETYPE1A, HCV genotype 1a replicon luciferase, read-out: LE_1a (EC50)
[10] = GETYPE1B, HCV genotype 1b replicon luciferase, read-out: LE_1b (EC50)

Compound	EC50 [1, 3] [nM]	EC50 [2, 4] [nM]	EC50 [1, 7] [nM]	EC50 [2, 8] [nM]	also measured
COc1ccc2c(O[C@@H]3C[C@H]4C(=O)N[C@]5(C(=O)NS(=O)(=O)C6(CF)CC6)C[C@H]5/C=C\CC[C@H](C)C[C@@H](C)[C@H](NC(=O)OC(C)(C)C(F)(F)F)C(=O)N4C3)ncc(C(F)(F)F)c2c1 [Compound 1174, 1,1,1-trifluoro-2-methylpropan-2-yl((2R,6S,7R,9S,13aS,14aR,16aS,Z)-14a-(((1-(fluoromethyl)cyclopropyl)sulfonyl)carbamoyl)-2-((6-methoxy-4-(trifluoromethyl)isoquinolin-1-yl)oxy)-7,9-dimethyl-5,16-dioxo-1,2,3,5,6,7,8,9,10,11,13a,14,14a,15,16,16a-hexadecahydrocyclopropa[e]pyrrolo[1,2-a][1,4]diazacyclopentadecin-6-yl)carbamate]	4.82 to 103	4.82 to 103			
COc1ccc2c(O[C@@H]3C[C@H]4C(=O)N[C@]5(C(=O)NS(=O)(=O)C6(CF)CC6)C[C@H]5/C=C\CC[C@@H](C)C[C@@H](C)[C@H](NC(=O)OC(C)(C)C(F)(F)F)C(=O)N4C3)ncc(C(F)(F)F)c2c1 [Compound 1175, 1,1,1-trifluoro-2-methylpropan-2-yl((2R,6S,7R,9R,13aS,14aR,16aS,Z)-14a-(((1-(fluoromethyl)cyclopropyl)sulfonyl)carbamoyl)-2-((6-methoxy-4-(trifluoromethyl)isoquinolin-1-yl)oxy)-7,9-dimethyl-5,16-dioxo-1,2,3,5,6,7,8,9,10,11,13a,14,14a,15,16,16a-hexadecahydrocyclopropa[e]pyrrolo[1,2-a][1,4]diazacyclopentadecin-6-yl)carbamate]	< 5.46	< 5.46			
COc1ccc2c(O[C@@H]3C[C@H]4C(=O)N[C@]5(C(=O)NS(=O)(=O)C6(CF)CC6)C[C@H]5/C=C\CC[C@H](C)C[C@@H](C)[C@H](NC(=O)OC5(C(F)(F)F)CCCOC5)C(=O)N4C3)ncc(C(F)(F)F)c2c1 (stereo partly drawn) [Compound 1176, 3-(trifluoromethyl)tetrahydro-2H-pyran-3-yl((2R,6S,7R,9S,13aS,14aR,16aS,Z)-14a-(((1-(fluoromethyl)cyclopropyl)sulfonyl)carbamoyl)-2-((6-methoxy-4-(trifluoromethyl)isoquinolin-1-yl)oxy)-7,9-dimethyl-5,16-dioxo-1,2,3,5,6,7,8,9,10,11,13a,14,14a,15,16,16a-hexadecahydrocyclopropa[e]pyrrolo[1,2-a][1,4]diazacyclopentadecin-6-yl)carbamate]	4.82 to 103	4.82 to 103			
COc1ccc2c(O[C@@H]3C[C@H]4C(=O)N[C@]5(C(=O)NS(=O)(=O)C6(CF)CC6)C[C@H]5/C=C\CC[C@@H](C)C[C@@H](C)[C@H](NC(=O)OC5(C(F)(F)F)CCCOC5)C(=O)N4C3)ncc(C(F)(F)F)c2c1 (stereo partly drawn) [Compound 1177, 3-(trifluoromethyl)tetrahydro-2H-pyran-3-yl((2R,6S,7R,9R,13aS,14aR,16aS,Z)-14a-(((1-(fluoromethyl)cyclopropyl)sulfonyl)carbamoyl)-2-((6-methoxy-4-(trifluoromethyl)isoquinolin-1-yl)oxy)-7,9-dimethyl-5,16-dioxo-1,2,3,5,6,7,8,9,10,11,13a,14,14a,15,16,16a-hexadecahydrocyclopropa[e]pyrrolo[1,2-a][1,4]diazacyclopentadecin-6-yl)carbamate]	< 5.46	< 5.46			
CC[C@@H]1C[C@@H](C)CC/C=C\[C@@H]2C[C@@]2(C(=O)NS(=O)(=O)C2(C)CC2)NC(=O)[C@@H]2C[C@@H](Oc3nc(OC)cc4cc(OC)ccc34)CN2C(=O)[C@H]1NC(=O)OC1(C(F)(F)F)CCCOC1 (stereo partly drawn) [Compound 1178, 3-(trifluoromethyl)tetrahydro-2H-pyran-3-yl((2R,6S,7R,9S,13aS,14aR,16aS,Z)-2-((3,6-dimethoxyisoquinolin-1-yl)oxy)-7-ethyl-9-methyl-14a-(((1-methylcyclopropyl)sulfonyl)carbamoyl)-5,16-dioxo-1,2,3,5,6,7,8,9,10,11,13a,14,14a,15,16,16a-hexadecahydrocyclopropa[e]pyrrolo[1,2-a][1,4]diazacyclopentadecin-6-yl)carbamate]	< 5.46	< 5.46			
COc1ccc2c(O[C@@H]3C[C@H]4C(=O)N[C@]5(C(=O)NS(=O)(=O)C6(C(F)F)CC6)C[C@H]5/C=C\CC[C@@H](C)C[C@@H](C)[C@H](NC(=O)OC(C)(C)C)C(=O)N4C3)nc(OC)cc2c1 [Compound 1180, tert-butyl ((2R,6S,7R,9R,13aS,14aR,16aS,Z)-14a-(((1-(difluoromethyl)cyclopropyl)sulfonyl)carbamoyl)-2-((3,6-dimethoxyisoquinolin-1-yl)oxy)-7,9-dimethyl-5,16-dioxo-1,2,3,5,6,7,8,9,10,11,13a,14,14a,15,16,16a-hexadecahydrocyclopropa[e]pyrrolo[1,2-a][1,4]diazacyclopentadecin-6-yl)carbamate]	< 5.46	< 5.46			
COc1ccc2c(O[C@@H]3C[C@H]4C(=O)N[C@]5(C(=O)NS(=O)(=O)C6(C(F)F)CC6)C[C@H]5/C=C\CC[C@@H](C)C[C@@H](C)[C@H](NC(=O)OC(C)(C)C(F)(F)F)C(=O)N4C3)nc(OC)cc2c1 [Compound 1181]					EC50 [1, 5]: < 5.46 nM; EC50 [2, 6]: < 5.46 nM
COc1ccc2c(O[C@@H]3C[C@H]4C(=O)N[C@]5(C(=O)NS(=O)(=O)C6(C(F)F)CC6)C[C@H]5/C=C\CC[C@@H](C)C[C@@H](C)[C@H](NC(=O)OC(C)(C)C(C)(F)F)C(=O)N4C3)nc(OC)cc2c1 [Compound 1182]					EC50 [1, 5]: < 5.46 nM; EC50 [2, 6]: < 5.46 nM
COc1ccc2c(O[C@@H]3C[C@H]4C(=O)N[C@]5(C(=O)NS(=O)(=O)C6(CF)CC6)C[C@H]5/C=C\CC[C@@H](C)C[C@@H](C)[C@H](NC(=O)O[C@@]5(C(F)(F)F)CCCOC5)C(=O)N4C3)nc(-c3ccc(OC(C)C)cc3)cc2c1 [Compound 1183]			1.01 to 5	1.01 to 5	
COc1ccc2c(O[C@@H]3C[C@H]4C(=O)N[C@]5(C(=O)NS(=O)(=O)C6(CF)CC6)C[C@H]5/C=C\CC[C@@H](C)C[C@@H](C)[C@H](NC(=O)O[C@]5(C(F)(F)F)CCCOC5)C(=O)N4C3)nc(-c3ccc(OC(C)C)cc3)cc2c1 [Compound 1184]			1.01 to 5	1.01 to 5	
COc1cc2ccnc(O[C@@H]3C[C@H]4C(=O)N[C@]5(C(=O)NS(=O)(=O)C6(CF)CC6)C[C@H]5/C=C\CC[C@@H](C)C[C@@H](C)[C@H](NC(=O)OC(C)(C)C(F)(F)F)C(=O)N4C3)c2cc1F [Compound 1185]			1.01 to 5	0.51 to 1	EC50 [1, 9]: 2.91 nM; EC50 [2, 10]: 0.83 nM
COc1cc2ccnc(O[C@@H]3C[C@H]4C(=O)N[C@]5(C(=O)NS(=O)(=O)C6(CF)CC6)C[C@H]5/C=C\CC[C@H](C)C[C@@H](C)[C@H](NC(=O)OC(C)(C)C(F)(F)F)C(=O)N4C3)c2cc1F [Compound 1186]			5.01 to 35	1.01 to 5	
CC[C@@H]1C[C@H](C)CC/C=C\[C@@H]2C[C@@]2(C(=O)NS(=O)(=O)C2(C)CC2)NC(=O)[C@@H]2C[C@@H](Oc3nc(OC)cc4cc(OC)c(F)cc34)CN2C(=O)[C@H]1NC(=O)OC(C)(C)C(F)(F)F [Compound 1187]			5.01 to 35	1.01 to 5	
CC[C@@H]1C[C@H](C)CC/C=C\[C@@H]2C[C@@]2(C(=O)NS(=O)(=O)C2(C)CC2)NC(=O)[C@@H]2C[C@@H](Oc3nc(OC)cc4cc(OC)c(F)cc34)CN2C(=O)[C@H]1NC(=O)OC(C)(C)C(C)(F)F [Compound 1188]			1.01 to 5	0.51 to 1	
CC[C@@H]1C[C@H](C)CC/C=C\[C@@H]2C[C@@]2(C(=O)NS(=O)(=O)C2(C)CC2)NC(=O)[C@@H]2C[C@@H](Oc3nc(OC)cc4cc(OC)c(F)cc34)CN2C(=O)[C@H]1NC(=O)OC1(C(F)(F)F)CCCOC1 (stereo partly drawn) [Compound 1189]			1.01 to 5	0.51 to 1	
COc1cc2ccnc(O[C@@H]3C[C@H]4C(=O)N[C@]5(C(=O)NS(=O)(=O)C6(CF)CC6)C[C@H]5/C=C\CC[C@@H](C)C[C@@H](C)[C@H](NC(=O)OC5(C(F)(F)F)CCCCO5)C(=O)N4C3)c2cc1F (stereo partly drawn) [Compound 1190]			1.01 to 5	1.01 to 5	EC50 [1, 9]: 1.66 nM; EC50 [2, 10]: 1.12 nM
COc1cc2ccnc(O[C@@H]3C[C@H]4C(=O)N[C@]5(C(=O)NS(=O)(=O)C6(CF)CC6)C[C@H]5/C=C\CC[C@H](C)C[C@@H](C)[C@H](NC(=O)OC5(C(F)(F)F)CCCCO5)C(=O)N4C3)c2cc1F (stereo partly drawn) [Compound 1191]			5.01 to 35	5.01 to 35	
CC[C@@H]1C[C@H](C)CC/C=C\[C@@H]2C[C@@]2(C(=O)NS(=O)(=O)C2(C)CC2)NC(=O)[C@@H]2C[C@@H](Oc3nccc4cc(OC)c(F)cc34)CN2C(=O)[C@H]1NC(=O)OC1(C(F)(F)F)CCCCO1 (stereo partly drawn) [Compound 1192]			1.01 to 5	0.51 to 1	
CC[C@@H]1C[C@H](C)CC/C=C\[C@@H]2C[C@@]2(C(=O)NS(=O)(=O)C2(CF)CC2)NC(=O)[C@@H]2C[C@@H](Oc3nc(OC)cc4cc(OC)ccc34)CN2C(=O)[C@H]1NC(=O)OC(C)(C)C(F)(F)F [Compound 1193]			1.01 to 5	0.51 to 1	
